According to patent US20220304945A1, “METHODS OF TREATING METABOLIC SYNDROME RELATED CONDITIONS USING RETINOIC ACID RECEPTOR AGONISTS” (Cornell University, priority 2014, published 2022):

Experiments:
RARβ2 = target: T1, RARβ2 (Homo sapiens, UniProt P10826); design: expressed in transfected cells; settings: from Table 1 and Table 2 of WO2007/009083; cited from earlier work
T1 sequence (P10826 1-448 isoform P10826-2): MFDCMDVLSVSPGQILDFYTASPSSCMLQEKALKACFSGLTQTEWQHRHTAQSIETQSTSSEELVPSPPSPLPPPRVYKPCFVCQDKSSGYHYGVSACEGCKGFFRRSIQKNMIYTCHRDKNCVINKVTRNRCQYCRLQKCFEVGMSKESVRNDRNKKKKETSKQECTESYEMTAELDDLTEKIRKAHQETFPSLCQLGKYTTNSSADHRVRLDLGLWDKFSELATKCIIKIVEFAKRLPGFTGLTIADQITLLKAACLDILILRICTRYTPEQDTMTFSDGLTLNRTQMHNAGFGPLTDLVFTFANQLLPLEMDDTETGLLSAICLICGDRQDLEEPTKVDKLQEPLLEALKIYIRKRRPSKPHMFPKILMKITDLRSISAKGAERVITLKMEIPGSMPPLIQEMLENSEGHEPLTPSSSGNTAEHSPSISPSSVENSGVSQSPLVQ

[1] = test system: mouse ES cells (RARβ, Cyp26a1 transcripts); experiment: RT-PCR of RA-responsive genes in WT and RARβ KO ES cells; type: cell-based
Method: C57BL/6 RARβ heterozygous mice were provided by Dr. Pierre Chambon (Strasbourg-Cedex, France) (26). Homozygous RARβ-null mice were obtained following mating of RARβ heterozygous mice. Blastocysts were harvested on day E3.5 and individually cultured on ES cell medium as previously described (28).
Various markers for endodermal (day 5), pancreatic progenitor (day 11), endocrine progenitor (day 14) and endocrine (day 17) differentiation were analyzed by semi-quantitative RT-PCR in J1 wild-type and RARβ KO ESCs. Primers were designed around introns whenever possible. Total RNA extraction, semi-quantitative and quantitative PCR reactions were performed as previously described (18). Amplified PCR products were resolved on 1.5% agarose gels and visualized by staining with ethidium bromide. PCR bands were sequenced for verification of the correct amplicon. Quantitation of semi-quantitative gels was performed using ImageJ software (National Institutes of Health) from three experimental biological repeats.

Row | Structure (SMILES) | % Eff. (RARβ2) [%] | other results
1 | CCCCCCCCc1ccc(-c2ccc(C(=O)Nc3ccc(C)cn3)cc2)cc1 [Compound 29] | 78 | –
2 | CCCCOCCOc1ccc(-c2ccc(C(=O)O)cc2)cc1 [Compound 18] | 108 | –
3 | CCCC1CCCC(c2ccc(-c3ccc(C(=O)O)cc3)cc2)CC1 (stereo not drawn) [Compound 49] | 59 | –
4 | CCCCCCCc1ccc(-c2ccc(C(=O)O)cc2)cc1 [Compound 10] | 64 | –
5 | CCCCCCOc1ccc(-c2ccc(C(=O)O)cc2)cc1 [Compound 12] | 72 | –
6 | CCCCCCCCc1ccc(-c2ccc(C(=O)O)cc2)cc1 [Compound 35] | 83 | –
7 | CCCCCCCCOc1ccc(-c2ccc(C(=O)NCCC#N)cc2)cc1 [Compound 51] | 59 | –
8 | CCCCCCCCc1ccc(-c2ccc(C(=O)NS(C)(=O)=O)cc2)cc1 [Compound 60] | 51 | –
9 | CCCCCCCCc1ccc(-c2ccc(C(=O)n3cnc(NC(C)=O)n3)cc2)cc1 [Compound 15] | 76 | –
10 | CCCOCCOc1nc(-c2ccc(C(=O)O)cc2)sc1C [Compound 33] | 98 | –
11 | CCCCCCCc1ccc(-c2ccc(C(=O)O)c(C)c2)cc1 [Compound 52] | 45 | pEC50 (RARβ2): 6.41
12 | CCCCCCCc1ccc(-c2ccc(C(=O)NCCc3ccccn3)cc2)cc1 [Compound 59] | 35 | –
13 | CCCCCCCCc1ccc(-c2ccc(C(=O)O)cc2)cc1 [Compound 6] | 104 | –
14 | CCCCCCc1ccc(-c2ccc(C(=O)O)cc2)cc1 [Compound 16] | 37 | –
15 | CCCCCCc1ccc(-c2ccc(C(=O)Nc3ccc(C)cn3)cc2)cc1 [Compound 63] | 36 | –
16 | CCCCCc1ccc(-c2ccc(C(=O)O)cc2)cc1 [Compound 4] | 44 | –
17 | CCCCOCCOc1nc(-c2ccc(C(=O)O)cc2)sc1C [Compound 27] | 95 | –
18 | CCCCCCCCOc1ccc(-c2ccc(C(=O)O)cc2)cc1 [Compound 32] | 70 | –
19 | CCCCOCCOc1cc(C)c(-c2ccc(C(=O)O)cc2)cc1C [Compound 44] | 41 | –
20 | CCCCCCCCc1ccc(-c2ccc(C(=O)n3ccnc3)cc2)cc1 [Compound 8] | 79 | pEC50 (RARβ2): 7.66
21 | CCCCCCCc1ccc(-c2ccc(C(=O)O)cc2)cc1 [Compound 9] | 76 | –
22 | CCCCCCCCc1ccc(-c2ccc(C(=O)O)cc2)cc1 [Compound 53] | 99 | –
23 | CCCCCCCc1ccc(-c2ccc(C(=O)NN)cc2)cc1 [Compound 45] | 78 | –

Row | Structure (SMILES) | % Eff. (RARβ2) [%] | other results
24 | CCCCCCCc1ccc(-c2ccc(C(=O)O)cc2F)cc1 [Compound 22] | 36 | –
25 | Cc1sc(-c2ccc(C(=O)O)cc2)nc1OCC(=O)NC1CCC(C)CC1 (stereo not drawn) [Compound 58] | 66 | –
26 | CCCCCCCc1ccc(-c2ccc(C(=O)O)c(F)c2)cc1 [Compound 36] | 42 | –
27 | CCCCc1ccc(-c2ccc(C(=O)O)cc2)cc1 [Compound 26] | 36 | pEC50 (RARβ2): 7.15
28 | CC1=C(/C=C/C(C)=C/C=C/C(C)=C/C(=O)O)C(C)(C)CCC1 [RA, all trans-retinoic acid] | – | RARβ signal (RT-PCR) ([1]; WT ES cells, presence of RA vs untreated): stronger RARβ signal; Cyp26a1 expression (RT-PCR) ([1]; WT and RARβ KO ES cells, RA-treated): observed in both WT and RARβ KO ES cells
29 | CCCCCCCOc1ccc(-c2ccc(C(=O)O)cc2)cc1 [Compound 24] | 58 | –
30 | CC(C)CCCCOc1ccc(-c2ccc(C(=O)O)cc2)cc1 [Compound 25] | 65 | –
31 | CCCCCCCCc1ccc(-c2ccc(C(=O)O)c(C)c2)cc1 [Compound 55] | 84 | –
32 | CCCCCCCCc1ccc(-c2ccc(C(=O)C(=O)O)cc2)cc1 [Compound 31] | 80 | –
33 | O=C(O)c1ccc(-c2ccc(OCCC=C(C3CC3)C3CC3)cc2)cc1 [Compound 47] | 58 | –
34 | CCCCNC(=O)COc1nc(-c2ccc(C(=O)O)cc2)sc1C [Compound 62] | 37 | –
35 | CCCCCCCc1ccc(-c2ccc(C(=O)NO)cc2)cc1 [Compound 37] | 49 | –
36 | CCCCCCCCc1ccc(-c2ccc(C(=O)O)cc2F)cc1 [Compound 38] | 70 | pEC50 (RARβ2): 6.81
37 | CCCCCCCCCc1ccc(-c2ccc(C(=O)O)cc2)cc1 [Compound 2] | 126 | –
38 | Cc1sc(-c2ccc(C(=O)O)cc2)nc1OCC(=O)NC1CCCC1 [Compound 61] | 39 | –
39 | CCCCCCCCN1CCN(c2ccc(C(=O)O)cc2)CC1 [Compound 50] | 85 | –
40 | CCCCCCOc1cc(C)c(-c2ccc(C(=O)O)cc2)cc1C [Compound 11] | 78 | –
41 | Cc1sc(-c2ccc(C(=O)O)cc2)nc1OCC(=O)NC(C)CCC(C)C (stereo not drawn) [Compound 57] | 77 | –
42 | Cc1sc(-c2ccc(C(=O)O)cc2)nc1OCC(=O)NC1CCCCCC1 [Compound 56] | 105 | –
43 | CCCCCCCCOc1ccc(-c2ccc(C(=O)NCCc3ccccn3)cc2)cc1 [Compound 54] | 39 | –
44 | CCCCC(CC)COc1nc(-c2ccc(C(=O)O)cc2)sc1C (stereo not drawn) [Compound 46] | 54 | –
45 | CCCCCCNC(=O)COc1nc(-c2ccc(C(=O)O)cc2)sc1C [Compound 13] | 85 | –
46 | CCCCCCCCCCOc1ccc(-c2ccc(C(=O)O)cc2)cc1 [Compound 20] | 98 | –
